Entries after “also recorded” stand apart in the source; their conditions may differ. Read-outs that look alike come from different tables or passages of the source.

In series [1] the target is T1, P-gp (Homo sapiens, UniProt P08183). Briefly: Rhodamine 123 intracellular accumulation assay in K562/Dox (flow cytometry). Particulars: for FAR (fluorescence activity ratio): Rho123, K562/Dox.
The test system of series [2] is K562/Dox cells. Briefly: Doxorubicin resistance reversal assay in K562/Dox (MTT). Particulars: K562/Dox; for FR (fold reversal): Dox co-administered. Here is the method:
(§1) Simultaneously, viability controls were run with no addition of the dissolution solvent. The cells were incubated at 37 °C at 5% CO2 for 48 h and the same protocol described above was followed. The potency of the compounds was established by means of the fold reversal (FR) values calculated from dividing the IC50 of Dox alone by the IC50 of Dox with different concentrations of each compound tested.

Series [3] concerns the target T1, P-gp. Particulars: Rho123 accumulation, K562/Dox; cited from earlier work.
The next series relates to MA-104 cells. The arrangement: method as in Delou et al. 2009[44]. Conditions: 22 µM; ref Delou et al. 2009[44]; cited from earlier work.
The test system of series [4] is peripheral blood mononuclear cells (PBMC). Briefly: Cytotoxicity on peripheral blood mononuclear cells (MTT). Format: cell-based, human. Particulars: MTT, 48 h, up to 50 µM. As to the method:
. PBMC were isolated by the Ficoll-Hypaque density gradient centrifugation technique of fresh heparinized blood from healthy human volunteers. The protocol was previously approved by the Catholic University of Córdoba Research Ethics Board. Signed informed consents were obtained from donors. All methods were performed in accordance with the relevant guidelines and regulations. Briefly, 1 × 10^5 cells/well in a 96-well plate were incubated with 10 µg/mL PHA, in the presence of the corresponding concentrations of the compounds or 0.5% v/v DMSO (negative control) for 48 h, and processed as above described for the MTT method. The percentages of inhibition on cell proliferation were determined by comparison with negative controls, and the corresponding IC50 values were calculated from the best fit of the concentration-dependent inhibition curves in GraphPad Prism 7.

Series [5] relates to K562 cells. Briefly: MTT colorimetric assay, cytotoxicity on sensitive K562. Format: cell-based. Particulars: Homo sapiens, K562, 48 h, MTT, 48 h, K562. As to the method:
(§2) This colorimetric technique is based on the ability of viable cells to capture MTT and reduce it through the mitochondrial enzyme succinic dehydrogenase to its insoluble form, formazan crystals. […] After this time, the plate was centrifuged at 2000 rpm for 10 min, and 100 µL of DMSO was added to dissolve the formazan crystals formed. Absorbance (Abs) was read at a wavelength of 595 nm in an iMark microplate reader (Bio-Rad, USA).
A general note: Formazan colour is commonly taken as a measure of viable cells.

Series [6] concerns K562 cells. The series is described as follows: Rhodamine 123 intracellular accumulation assay in K562 (flow cytometry). Particulars: K562, maximum concentration assayed.
In series [7] the test system is K562 cells. The series is described as follows: Doxorubicin intracellular accumulation assay in K562 (flow cytometry). Particulars: K562, versus negative control. A general note: A flow cytometer gives signals particle by particle.
The next series deals with erythrocytes. The series is described as follows: Erythrocyte hemolysis assay. It is filed as cell-based, human. Particulars: maximum tested concentration of 50 µM, 1 h. As to the method:
For the erythrocyte hemolysis assay, the red blood cell suspension was obtained from fresh heparinized blood collected from healthy human volunteer donors, without receiving any treatment. The blood sample was centrifuged at 2,500 rpm for 10 min at 4 °C. The supernatant was discarded, and the red blood cell pellet was subjected to two consecutive washes with sterile PBS, using the same centrifugation conditions. An aliquot of the pellet obtained was resuspended in PBS (3% v/v). The compounds were incubated at decreasing concentrations starting from 50 µM with the suspension at 37 °C for 1 h. Controls with 1% DMSO and no solvent were included.

The target of series [8] is T1, P-gp. The series is described as follows: Doxorubicin intracellular accumulation assay in K562/Dox (flow cytometry).
The test system of series [9] is K562/Dox cells. The series is described as follows: MTT colorimetric assay, cytotoxicity on resistant K562/Dox. Format: cell-based. Conditions: Homo sapiens, K562, 48 h, MTT, 48 h, K562/Dox; read-out: IC50 K562/Dox. As to the method:
as §2, with “crystals. The target compounds dissolved in DMSO (0.5% v/v as final concentration which was non-toxic to cells) at a maximum concentration of 50 µM were exposed to 5 × 10^4 cells distributed in a 96-well plate and incubated for 48 h.” for “crystals.”, “USA). The percentages of cytotoxicity were determined as compared to DMSO treated control cells, which were considered 100% viable as showing the same level of growth as the untreated cells.” for “USA).”

Series [10] deals with K562 cells. The series is described as follows: Doxorubicin resistance reversal assay in K562 (MTT). Conditions: K562, 1.56 µM. It is filed as cell-based. Here is the method: as §1

T1 sequence (P08183 whole entry): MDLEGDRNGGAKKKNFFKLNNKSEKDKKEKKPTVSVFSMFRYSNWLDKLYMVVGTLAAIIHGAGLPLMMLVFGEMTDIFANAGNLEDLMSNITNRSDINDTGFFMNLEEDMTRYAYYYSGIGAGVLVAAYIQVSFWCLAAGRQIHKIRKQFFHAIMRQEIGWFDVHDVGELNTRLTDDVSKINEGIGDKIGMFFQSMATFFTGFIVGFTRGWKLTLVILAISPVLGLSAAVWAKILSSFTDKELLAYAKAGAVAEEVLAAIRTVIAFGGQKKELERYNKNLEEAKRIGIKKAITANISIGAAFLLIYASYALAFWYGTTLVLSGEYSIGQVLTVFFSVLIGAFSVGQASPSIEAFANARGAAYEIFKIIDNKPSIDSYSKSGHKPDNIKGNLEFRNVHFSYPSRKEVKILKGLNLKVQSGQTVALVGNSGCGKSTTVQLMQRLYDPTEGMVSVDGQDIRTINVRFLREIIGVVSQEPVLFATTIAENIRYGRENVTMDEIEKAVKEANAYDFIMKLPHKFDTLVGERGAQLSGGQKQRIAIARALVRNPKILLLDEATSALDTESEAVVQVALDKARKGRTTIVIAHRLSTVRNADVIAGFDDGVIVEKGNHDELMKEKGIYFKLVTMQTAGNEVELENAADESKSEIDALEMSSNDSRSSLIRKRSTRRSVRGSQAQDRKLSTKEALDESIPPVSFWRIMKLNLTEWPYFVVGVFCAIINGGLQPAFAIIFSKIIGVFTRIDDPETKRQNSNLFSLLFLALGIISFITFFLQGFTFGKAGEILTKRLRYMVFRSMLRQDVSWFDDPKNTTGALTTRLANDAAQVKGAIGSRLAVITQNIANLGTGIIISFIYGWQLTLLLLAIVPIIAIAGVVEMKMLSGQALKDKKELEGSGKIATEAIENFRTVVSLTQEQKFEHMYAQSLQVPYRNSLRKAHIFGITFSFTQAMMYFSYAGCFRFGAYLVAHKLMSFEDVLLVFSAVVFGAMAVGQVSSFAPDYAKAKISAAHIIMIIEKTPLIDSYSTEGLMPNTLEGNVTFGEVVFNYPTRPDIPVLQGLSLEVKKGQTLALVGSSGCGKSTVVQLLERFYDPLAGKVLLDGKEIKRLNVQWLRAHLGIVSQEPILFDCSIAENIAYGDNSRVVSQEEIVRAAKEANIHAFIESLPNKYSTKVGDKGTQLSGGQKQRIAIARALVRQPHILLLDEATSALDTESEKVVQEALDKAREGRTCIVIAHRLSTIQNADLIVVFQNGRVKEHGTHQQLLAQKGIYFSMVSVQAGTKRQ

For the molecule `C=C(C)[C@@H]1CC[C@]2(CO)CC[C@]3(C)[C@H](CC[C@@H]4[C@@]5(C)CC[C@H](O)C(C)(C)[C@@H]5CC[C@]43C)[C@@H]12` [Compound 1, betulin], the “FAR (fluorescence activity ratio)” value stood at 1.01 ± 0.07 at P-gp [1] (0.78 µM); 1.12 ± 0.03 on P-gp [1] (1.56 µM); 1.23 ± 0.04 on P-gp [1] (3.12 µM); 1.32 ± 0.06 at P-gp [1] (6.25 µM); 1.80 ± 0.08 on P-gp [1] (12.50 µM); 2.34 ± 0.19 at P-gp [1] (25 µM). On P-gp [1] (50 µM), the “FAR (fluorescence activity ratio)” value amounted to 2.77 ± 0.36. Besides, the “MEC, Dox resistance reversal” value in the series on K562/Dox cells [2] worked out at 0.39 µM. Besides, the “MEC (minimum effective concentration)” value at P-gp [3] is 1.56 µM.

With `C=C(C)[C@@H]1CC[C@]2(C(=O)O)CC[C@]3(C)[C@H](CC[C@@H]4[C@@]5(C)CC[C@H](O)C(C)(C)[C@@H]5CC[C@]43C)[C@@H]12` [Compound 2, betulinic acid, reference compound], the “FAR (fluorescence activity ratio)” value at P-gp [1] (50 µM) is 1.05 ± 0.04. In addition, the “Rho123 accumulation in MA-104 cells” value in the series on MA-104 cells is given as “not to alter Rho123 accumulation”.

As for `C=C(C)[C@@H]1CC[C@]2(COC(=O)NCCc3cc(OC)c(OC)c(OC)c3)CC[C@]3(C)[C@H](CC[C@@H]4[C@@]5(C)CC[C@H](O)C(C)(C)[C@@H]5CC[C@]43C)[C@@H]12` [Compound 6g], in [4], the “cytotoxicity on PBMC” value is “devoid of toxic effects; also recorded: did not reveal cytotoxicity”. Besides, the IC50 in the series with K562 cells [5] and in the series on K562/Dox cells [9] was more than 50 µM throughout. In the series on K562 cells [6], the “Rho123 accumulation in K562” value was “did not increase Rho123 accumulation”. In the series with K562 cells [7], the “Dox accumulation in K562” value is recorded as “did not increase Dox accumulation”. In the series on erythrocytes, the “erythrocyte hemolysis” value is listed as “devoid of toxic effects; also recorded: Neither compound induced erythrocyte hemolysis”. Also, the “MEC, Dox accumulation” value on P-gp [8] is 0.098 µM. Besides, on P-gp [8] (50 µM), the “FAR, Dox accumulation” value stood at 1.26 ± 0.02. The “FAR (fluorescence activity ratio)” value at P-gp [1] (0.098 µM) was determined as 1.00 ± 0.04; at P-gp [1] (0.19 µM) it was 1.09 ± 0.03; at P-gp [1] (0.78 µM), 1.33 ± 0.14; at P-gp [1] (1.56 µM) it was 1.61 ± 0.23; at P-gp [1] (3.12 µM) it was 2.05 ± 0.36; at P-gp [1] (6.25 µM) it was 2.62 ± 0.49. The “FAR (fluorescence activity ratio)” value at P-gp [1] (25 µM) was determined as 3.47 ± 0.61; on P-gp [1] (50 µM), 4.02 ± 0.70. Further, on P-gp [1] (Rho123 accumulation, K562/Dox), the “MEC (minimum effective concentration)” value was determined as 0.19 µM. For the same molecule, the “dose-dependent behavior, b” value at P-gp [1] (Rho123 accumulation, K562/Dox) was 64.49. Also, the “MEC, Dox resistance reversal” value in the series on K562/Dox cells [2] amounted to 0.024 µM. In the series with K562/Dox cells [2], the “potency for restoring the cytotoxicity of Dox relative to compound 1 (times)” value amounted to 16. For the same molecule, the “FR (fold reversal)” value in the series on K562/Dox cells [2] (0.024 µM) is recorded as 1.17 ± 0.05; in the series on K562/Dox cells [2] (0.78 µM), 3.98 ± 0.71; with K562/Dox cells [2] (1.56 µM) it was 5.37 ± 1.36. In addition, in the series on K562 cells [10], the “reversal effect on parental K562” value is given as “slight increase in Dox toxicity”.

Values taken from paper PMC10762177, “Novel betulin derivatives as multidrug reversal agents targeting P-glycoprotein” (Scientific Reports, 2024).
